In paper PMC12645437, “Orthogonal IMiD-Degron Pairs Induce Selective Protein Degradation in Cells” (ACS Chemical Biology, 2025):
Where two headings read alike, the source gives them in different places.

Key:
[1] = molecular target: T1, Q147A mutant degron (ANQS) fused to EGFP (Homo sapiens, UniProt Q96SW2+Q9UKT9, Q147A); assay: Ratiometric EGFP:mCherry flow cytometry degradation assay, 18 h; type: cell-based; details: Jurkat, read-out: DMax Q147A/%
T1 construct: pLVX-Sprout-IKZF3 130-189aa Q147A (ANQS); expressed in transfected cells

Jurkat cells = assay: TMTpro quantitative proteomics, 16 h; details: for Scaled value (to 150), replicate 01 / Scaled value (to 150), replicate 02 / Scaled value (to 150), replicate 03 / Log2(ratio) compound/UT / Ratio to untreated, replicate 01 / Ratio to untreated, replicate 02 / Ratio to untreated, replicate 03: Jurkat whole cell extracts; for Scaled value (to 150), replicate 01 / Scaled value (to 150), replicate 02 / Scaled value (to 150), replicate 03: TMTpro SPS-MS3; for Log2(ratio) compound/UT: Welch's t-test with FDR correction
Protocol: Quantitative proteomics screens were carried out in untransduced Jurkat cells, embryonic stem cells (ESCs), and the multiple myeloma cell line, MM.1S. We used Jurkat cells, as our work up to this point had employed this cell line, and we selected ESCs and MM.1S cells as they express known CRBN neosubstrates, including IKZF1, IKZF3, RAB28, RNF166, SALL4, ZFP91, and ZNF827.
Proteomics - cell lysis and protein digestion
The viability of Jurkat cells was tested after 16-h treatment with corresponding chemicals
viable cells in each condition. Next, ~10^7 cells per condition were collected by centrifugation (1000 rpm), washed twice with ice-cold PBS, and lysed in RIPA buffer [50 mM HEPES pH 7.4, 150 mM NaCl, 1% sodium deoxycholate, 1% NP-40, 0.1% SDS, 10 mM sodium pyrophosphate, 10 mM β-glycerophosphate, 2.5 mM MgCl2, 200 µM TCEP, phosphatase and protease inhibitor cocktail (in-house)], to produce whole cell extracts. Whole-cell extracts were sonicated, and protein concentrations were determined using the Bradford assay. Protein extracts (100 µg) were subjected to disulfide bond reduction with 5 mM TCEP (10 min) and alkylation with 25 mM chloroacetamide (20 min). Methanol–chloroform precipitation was performed prior to protease digestion. In brief, four parts of neat methanol were added to each sample and vortexed, one part chloroform was added to the sample and vortexed, and finally, three parts water was added to the sample and vortexed. The sample was centrifuged at 8000 rpm for 5 min at room temperature and subsequently washed twice with 100% methanol. Samples were resuspended in 100 mM EPPS pH8.5 containing
0.1% RapiGest and digested at 37 °C for 6 h with trypsin at a 100:1 protein-to-protease ratio.
Samples were then subjected to TMTpro
labeling. The preparation of MM1S cell extracts was conducted using the same procedure as for
Jurkat cells. ESC cells were plated onto 6 cm dishes 24 hours prior to the chemical treatment.
Following the chemical treatment, the cells on the dish were washed with DPBS four times, after
which RIPA buffer was added directly to the dish, and the lysate was collected using a scraper.
The whole cell lysates were then processed similarly to the Jurkat cell lysates.
Proteomics - Tandem mass tag labeling
Proline-based reporter isobaric Tandem Mass Tag (TMTpro) labeling of dried peptide samples
resuspended in 100 mM EPPS pH 8.5, was carried out as follows. TMTpro reagent was added to
samples (100 µg peptide), along with acetonitrile, to achieve a final acetonitrile concentration of
approximately 30% (v/v). Following incubation at room temperature for 1 h, the labeling efficiency
of a small aliquot was tested. The reaction was then quenched with hydroxylamine to a final
concentration of 0.5% (v/v) for 15 min. The TMTpro-labeled samples were pooled together at a
1:1 ratio. The sample was vacuum centrifuged to near dryness and subjected to C18 solid-phase
The dried TMTpro-labeled sample was resuspended in 100 μL of 10 mM NH4HCO3 pH 8.0 and
fractionated using basic pH reverse phase HPLC 40. Briefly, samples were offline fractionated over
a 90 min run, into 96 fractions by high pH reverse-phase HPLC (Agilent LC1260) through an aeris
peptide xb-c18 column (Phenomenex; 250 mm × 3.6 mm) for total proteome with mobile phase A
containing 5% acetonitrile and 10 mM NH4HCO3, and mobile phase B containing 90% acetonitrile

[2] = protein AADAT isoform 2 (Q8N5Z0-2)

T1 sequence (Q9UKT9 130-189 Q147A): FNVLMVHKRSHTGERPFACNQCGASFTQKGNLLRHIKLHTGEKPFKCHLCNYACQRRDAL
T1 sequence (Q96SW2 whole entry, the tested form may be a part): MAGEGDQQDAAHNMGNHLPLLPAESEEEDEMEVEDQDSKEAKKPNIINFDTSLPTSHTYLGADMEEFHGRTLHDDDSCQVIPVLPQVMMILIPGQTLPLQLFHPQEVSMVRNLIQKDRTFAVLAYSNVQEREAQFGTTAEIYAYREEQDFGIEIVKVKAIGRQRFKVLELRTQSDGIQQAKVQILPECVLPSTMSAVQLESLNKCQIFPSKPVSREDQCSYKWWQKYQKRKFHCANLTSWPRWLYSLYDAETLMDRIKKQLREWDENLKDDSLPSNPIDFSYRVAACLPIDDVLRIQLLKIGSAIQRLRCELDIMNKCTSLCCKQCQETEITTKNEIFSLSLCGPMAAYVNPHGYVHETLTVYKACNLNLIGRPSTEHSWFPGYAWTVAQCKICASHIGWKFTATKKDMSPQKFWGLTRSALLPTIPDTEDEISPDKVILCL
T1 sequence (Q16531 whole entry partner, the tested form may be a part): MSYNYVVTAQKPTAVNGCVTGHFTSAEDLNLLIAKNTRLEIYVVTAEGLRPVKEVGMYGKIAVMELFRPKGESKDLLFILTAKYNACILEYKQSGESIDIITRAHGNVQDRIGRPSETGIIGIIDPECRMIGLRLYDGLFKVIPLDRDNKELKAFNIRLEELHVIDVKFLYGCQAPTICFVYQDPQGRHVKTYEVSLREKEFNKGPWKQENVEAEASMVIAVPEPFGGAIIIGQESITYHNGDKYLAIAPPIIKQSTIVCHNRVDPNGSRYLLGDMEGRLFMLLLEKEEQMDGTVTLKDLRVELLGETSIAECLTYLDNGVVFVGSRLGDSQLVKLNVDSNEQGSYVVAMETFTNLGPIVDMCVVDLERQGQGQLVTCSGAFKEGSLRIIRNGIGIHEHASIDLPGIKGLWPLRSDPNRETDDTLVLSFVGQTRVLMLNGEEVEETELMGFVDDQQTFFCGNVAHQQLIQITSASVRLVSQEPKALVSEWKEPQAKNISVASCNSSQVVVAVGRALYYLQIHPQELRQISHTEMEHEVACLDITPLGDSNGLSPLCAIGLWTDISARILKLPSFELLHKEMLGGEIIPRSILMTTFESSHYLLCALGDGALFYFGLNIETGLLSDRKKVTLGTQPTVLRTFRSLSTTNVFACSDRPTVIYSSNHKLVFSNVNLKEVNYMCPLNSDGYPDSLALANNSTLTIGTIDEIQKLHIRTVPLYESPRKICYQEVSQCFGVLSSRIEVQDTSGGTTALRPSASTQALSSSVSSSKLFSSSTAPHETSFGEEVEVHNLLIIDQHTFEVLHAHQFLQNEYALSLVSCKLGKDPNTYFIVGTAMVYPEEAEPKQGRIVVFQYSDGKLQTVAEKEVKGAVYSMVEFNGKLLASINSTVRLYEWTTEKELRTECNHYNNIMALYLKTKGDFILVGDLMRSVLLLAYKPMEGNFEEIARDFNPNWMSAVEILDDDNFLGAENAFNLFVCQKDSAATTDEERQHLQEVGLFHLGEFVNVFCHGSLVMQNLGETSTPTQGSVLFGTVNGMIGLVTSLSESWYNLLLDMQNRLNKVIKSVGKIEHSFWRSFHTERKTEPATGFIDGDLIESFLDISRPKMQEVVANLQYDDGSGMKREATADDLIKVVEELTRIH

Work on COc1ccc2c(c1)C(=O)N(C1CCC(=O)NC1=O)C2=O (centres unmarked) [Compound 7] yielded a Dmax ([1]; 18 h, Fig 2B) of 82%.
In the case of O=C1CCC(N2C(=O)c3cccc(I)c3C2=O)C(=O)N1 (centres unmarked) [Compound 14], the Dmax ([1]; 18 h, Fig 2B) is reported as 86%.
For O=C1CCC(N2C(=O)c3ccc(Br)cc3C2=O)C(=O)N1 (centres unmarked) [Compound 13], the Dmax ([1]; 18 h, Fig 2B) was 56%.
CN(C)c1ccc2c(c1)C(=O)N(C1CCC(=O)NC1=O)C2=O (centres unmarked) [Compound 21] was tested, and the Dmax ([1]; 18 h, Fig 2B) was 86%.
Compound O=C1CCC(N2C(=O)c3cccc(OCc4cccnc4)c3C2=O)C(=O)N1 (centres unmarked) [Compound 31] has a Dmax ([1]; 18 h, Fig 2B) of 82%.
With O=C1CCC(N2C(=O)c3cccc(O)c3C2=O)C(=O)N1 (centres unmarked) [Compound 4] the Dmax [1] was 46%.
For Nc1cccc2c1CN(C1CCC(=O)NC1=O)C2=O (centres unmarked) [lenalidomide], the “Scaled value (to 150), replicate 01” value (Jurkat cells; protein A2M (P01023)) was 10.2473, the “Scaled value (to 150), replicate 02” value (Jurkat cells; protein A2M (P01023)) was 8.044 and the “Scaled value (to 150), replicate 03” value (Jurkat cells; protein A2M (P01023)) was 8.233. For the same compound, the “Scaled value (to 150), replicate 01” value (Jurkat cells; protein AAAS (Q9NRG9)) was 9.75, the “Scaled value (to 150), replicate 02” value (Jurkat cells; protein AAAS (Q9NRG9)) was 10.198 and the “Scaled value (to 150), replicate 03” value (Jurkat cells; protein AAAS (Q9NRG9)) was 10.3119. For the same compound, the “Scaled value (to 150), replicate 01” value (Jurkat cells; protein AACS (Q86V21)) was 10.2128, the “Scaled value (to 150), replicate 02” value (Jurkat cells; protein AACS (Q86V21)) was 10.0368 and the “Scaled value (to 150), replicate 03” value (Jurkat cells; protein AACS (Q86V21)) was 9.972. The “Scaled value (to 150), replicate 01” value (Jurkat cells; [2]) was 9.894, the “Scaled value (to 150), replicate 02” value (Jurkat cells; [2]) was 10.004 and the “Scaled value (to 150), replicate 03” value (Jurkat cells; [2]) was 10.2911. For the same compound, the “proteins significantly degraded (quantitative proteomics)” value (Jurkat cells; Jurkat, 1 μM, 16 h, Welch's t test) was “at least 6 proteins”.
Work on O=C1CCC(N2C(=O)c3cccc(Cl)c3C2=O)C(=O)N1 (centres unmarked) [Compound 10] yielded a Dmax ([1]; 18 h, Fig 2B) of 88%.
COc1cccc2c1C(=O)N(C1CCC(=O)NC1=O)C2=O (centres unmarked) [Compound 6] gave a Dmax ([1]; 18 h, Fig 2B) of 75%.
Work on O=C1CCC(N2C(=O)c3cccc(NCc4ccccc4)c3C2=O)C(=O)N1 (centres unmarked) [Compound 26] yielded a Dmax ([1]; 18 h, Fig 2B) of 95%.
In the case of O=C1CCC(N2C(=O)c3cccc(F)c3C2=O)C(=O)N1 (centres unmarked) [Compound 8], the Dmax ([1]; 18 h, Fig 2B) is reported as 57%.
O=C1CCC(N2C(=O)c3ccc(Cl)cc3C2=O)C(=O)N1 (centres unmarked) [Compound 11] gave a Dmax ([1]; 18 h, Fig 2B) of 37%.
Nc1ccc2c(c1)C(=O)N(C1CCC(=O)NC1=O)C2=O (centres unmarked) [Compound 3] was tested, and the Dmax ([1]; 18 h, Fig 2B) was 90%.
O=C1CCC(N2C(=O)c3cccc(NCc4cccnc4)c3C2=O)C(=O)N1 (centres unmarked) [Compound 27] was tested, and the Dmax ([1]; 18 h, Fig 2B) was 93%.
Cc1cccc2c1C(=O)N(C1CCC(=O)NC1=O)C2=O (centres unmarked) [Compound 16] showed a Dmax ([1]; 18 h, Fig 2B) of 87%.
For Cc1ccccc1CNc1cccc2c1C(=O)N(C1CCC(=O)NC1=O)C2=O (centres unmarked) [Compound 28], the Dmax ([1]; 18 h, Fig 2B) was 94%.
With O=C1CCC(N2C(=O)c3ccncc3C2=O)C(=O)N1 (centres unmarked) [Compound 36] the Dmax ([1]; 18 h, Fig 2B) was 91%.
O=C1CCC(N2C(=O)c3ccc(F)cc3C2=O)C(=O)N1 (centres unmarked) [Compound 9] was tested, and the Dmax ([1]; 18 h, Fig 2B) was 89%.
For Cc1ccc2c(c1)C(=O)N(C1CCC(=O)NC1=O)C2=O (centres unmarked) [Compound 17], the Dmax ([1]; 18 h, Fig 2B) was 72%.
CN1CCN(c2ccc3c(c2)C(=O)N(C2CCC(=O)NC2=O)C3=O)CC1 (centres unmarked) [Cmpd23] was tested, and the “Scaled value (to 150), replicate 01” value (Jurkat cells; protein A2M (P01023)) was 8.458, the “Scaled value (to 150), replicate 02” value (Jurkat cells; protein A2M (P01023)) was 9.12 and the “Scaled value (to 150), replicate 03” value (Jurkat cells; protein A2M (P01023)) was 12.2998. The “Scaled value (to 150), replicate 01” value (Jurkat cells; protein AAAS (Q9NRG9)) was 10.4661, the “Scaled value (to 150), replicate 02” value (Jurkat cells; protein AAAS (Q9NRG9)) was 9.826 and the “Scaled value (to 150), replicate 03” value (Jurkat cells; protein AAAS (Q9NRG9)) was 10.0212. For the same compound, the “Scaled value (to 150), replicate 01” value (Jurkat cells; protein AACS (Q86V21)) was 9.826, the “Scaled value (to 150), replicate 02” value (Jurkat cells; protein AACS (Q86V21)) was 9.749 and the “Scaled value (to 150), replicate 03” value (Jurkat cells; protein AACS (Q86V21)) was 9.8. For the same compound, the “Scaled value (to 150), replicate 01” value (Jurkat cells; [2]) was 10.0867, the “Scaled value (to 150), replicate 02” value (Jurkat cells; [2]) was 10.5129 and the “Scaled value (to 150), replicate 03” value (Jurkat cells; [2]) was 9.582. The “Log2(ratio) compound/UT” value (Jurkat cells; protein A2M (P01023)) was -0.3516, the “Ratio to untreated, replicate 01” value (Jurkat cells; protein A2M (P01023)) was 0.6228 and the “Ratio to untreated, replicate 02” value (Jurkat cells; protein A2M (P01023)) was 0.6715. The “Ratio to untreated, replicate 03” value (Jurkat cells; protein A2M (P01023)) was 0.9057, the “Log2(ratio) compound/UT” value (Jurkat cells; protein AAAS (Q9NRG9)) was -0.01283 and the “Ratio to untreated, replicate 01” value (Jurkat cells; protein AAAS (Q9NRG9)) was 1.017. For the same compound, the “Ratio to untreated, replicate 02” value (Jurkat cells; protein AAAS (Q9NRG9)) was 0.9547, the “Ratio to untreated, replicate 03” value (Jurkat cells; protein AAAS (Q9NRG9)) was 0.9736 and the “Log2(ratio) compound/UT” value (Jurkat cells; protein AACS (Q86V21)) was -0.01545. For the same compound, the “Ratio to untreated, replicate 01” value (Jurkat cells; protein AACS (Q86V21)) was 0.9811, the “Ratio to untreated, replicate 02” value (Jurkat cells; protein AACS (Q86V21)) was 0.9735 and the “Ratio to untreated, replicate 03” value (Jurkat cells; protein AACS (Q86V21)) was 0.9785. For the same compound, the “Log2(ratio) compound/UT” value (Jurkat cells; [2]) was 0.05616, the “Ratio to untreated, replicate 01” value (Jurkat cells; [2]) was 1.033 and the “Ratio to untreated, replicate 02” value (Jurkat cells; [2]) was 1.076. For the same compound, the “Ratio to untreated, replicate 03” value (Jurkat cells; [2]) was 0.9809.
O=C1CCC(N2C(=O)c3cccc(Br)c3C2=O)C(=O)N1 (centres unmarked) [Compound 12] showed a Dmax ([1]; 18 h, Fig 2B) of 66%.
O=C1CCC(N2C(=O)c3ccc(C(F)(F)F)cc3C2=O)C(=O)N1 (centres unmarked) [Compound 18] gave a Dmax ([1]; 18 h, Fig 2B) of 91%.
O=C1CCC(N2C(=O)c3ccc(-c4ccccc4)cc3C2=O)C(=O)N1 (centres unmarked) [Compound 20] showed a Dmax ([1]; 18 h, Fig 2B) of 66%.
Compound O=C1CCC(N2C(=O)c3cccc(OC(c4ccccc4)c4ccccc4)c3C2=O)C(=O)N1 (centres unmarked) [Compound 34] has a Dmax ([1]; 18 h, Fig 2B) of 90%.
Compound CCNc1cccc2c1C(=O)N(C1CCC(=O)NC1=O)C2=O (centres unmarked) [Compound 24] has a Dmax ([1]; 18 h, Fig 2B) of 96%.
O=C1CCC(N2C(=O)c3cccc(OCc4ccccc4)c3C2=O)C(=O)N1 (centres unmarked) [Compound 30] was tested, and the Dmax ([1]; 18 h, Fig 2B) was 85%.
In the case of Cc1ccccc1COc1cccc2c1C(=O)N(C1CCC(=O)NC1=O)C2=O (centres unmarked) [Compound 32], the Dmax ([1]; 18 h, Fig 2B) is reported as 65%.
O=C1CCC(N2C(=O)c3cccnc3C2=O)C(=O)N1 (centres unmarked) [Compound 35] was tested, and the Dmax ([1]; 18 h, Fig 2B) was 60%.
In the case of O=C1CCC(N2C(=O)c3ccc(I)cc3C2=O)C(=O)N1 (centres unmarked) [Compound 15], the Dmax ([1]; 18 h, Fig 2B) is reported as 77%.
